Measurements taken from PubChem BioAssay (NCI).
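These data come from cells grown in 96-well plates and exposed to compound for 48 hours at five concentrations. GI50 marks 50% less growth. TGI is the concentration that stops growth completely.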

Assays:
Assay in all cases: DTP human tumour cell line panel, 48 h
786-0 renal = tested on: 786-0 renal
A498 renal = tested on: A498 renal
A549 NSCLC = tested on: A549 NSCLC
ACHN renal = tested on: ACHN renal
BT-549 breast = tested on: BT-549 breast
CAKI-1 renal = tested on: CAKI-1 renal
CCRF-CEM leukemia = tested on: CCRF-CEM leukemia
COLO 205 colon = tested on: COLO 205 colon
DU-145 prostate = tested on: DU-145 prostate
EKVX NSCLC = tested on: EKVX NSCLC
HCC-2998 colon = tested on: HCC-2998 colon
HCT-116 colon = tested on: HCT-116 colon
HCT-15 colon = tested on: HCT-15 colon
HL-60(TB) leukemia = tested on: HL-60(TB) leukemia
HOP-62 NSCLC = tested on: HOP-62 NSCLC
HOP-92 NSCLC = tested on: HOP-92 NSCLC
HS 578T breast = tested on: HS 578T breast
HT29 colon = tested on: HT29 colon
IGROV1 ovarian = tested on: IGROV1 ovarian
K-562 leukemia = tested on: K-562 leukemia
KM12 colon = tested on: KM12 colon
LOX IMVI melanoma = tested on: LOX IMVI melanoma
M14 melanoma = tested on: M14 melanoma
MALME-3M melanoma = tested on: MALME-3M melanoma
MCF7 breast = tested on: MCF7 breast
MDA-MB-231 breast = tested on: MDA-MB-231 breast
MDA-MB-435 = tested on: MDA-MB-435
MDA-MB-468 breast = tested on: MDA-MB-468 breast
MOLT-4 leukemia = tested on: MOLT-4 leukemia

Cc1ccc(CNC(=O)Cc2ccc3c(c2)CN(C2CCC(=O)NC2=O)C3=O)cc1 (centres undefined)
GI50 (786-0 renal): 20.2 nM
GI50 (A498 renal): 18.3 nM
TGI (A498 renal): 648 nM
GI50 (A549 NSCLC): 51.5 nM
TGI (A549 NSCLC): > 100000 nM
GI50 (ACHN renal): 445 nM
TGI (ACHN renal): > 100000 nM
GI50 (BT-549 breast): < 10 nM
TGI (BT-549 breast): < 12.8 nM
GI50 (CAKI-1 renal): 25.1 nM
TGI (CAKI-1 renal): > 100000 nM
GI50 (CCRF-CEM leukemia): < 10 nM
TGI (CCRF-CEM leukemia): > 100000 nM
GI50 (COLO 205 colon): < 10 nM
TGI (COLO 205 colon): 54.5 nM
GI50 (DU-145 prostate): 1090 nM
TGI (DU-145 prostate): > 100000 nM
GI50 (EKVX NSCLC): 384 nM
TGI (EKVX NSCLC): > 100000 nM
GI50 (HCC-2998 colon): < 10 nM
TGI (HCC-2998 colon): 258 nM
GI50 (HCT-116 colon): > 36500 nM
TGI (HCT-116 colon): > 100000 nM
GI50 (HCT-15 colon): 16 nM
TGI (HCT-15 colon): 888 nM
GI50 (HL-60(TB) leukemia): < 10 nM
TGI (HL-60(TB) leukemia): 2740 nM
GI50 (HOP-62 NSCLC): < 10 nM
TGI (HOP-62 NSCLC): 110 nM
GI50 (HOP-92 NSCLC): < 10 nM
TGI (HOP-92 NSCLC): < 19.6 nM
GI50 (HS 578T breast): < 10 nM
TGI (HS 578T breast): 267 nM
GI50 (HT29 colon): 50.1 nM
TGI (HT29 colon): > 100000 nM
GI50 (IGROV1 ovarian): < 10 nM
TGI (IGROV1 ovarian): 148 nM
GI50 (K-562 leukemia): 51.5 nM
TGI (K-562 leukemia): > 100000 nM
GI50 (KM12 colon): 31.1 nM
TGI (KM12 colon): > 100000 nM
GI50 (LOX IMVI melanoma): > 71600 nM
TGI (LOX IMVI melanoma): > 100000 nM
GI50 (M14 melanoma): < 13.1 nM
TGI (M14 melanoma): 1850 nM
GI50 (MALME-3M melanoma): < 10 nM
TGI (MALME-3M melanoma): < 12.6 nM
GI50 (MCF7 breast): 21.7 nM
TGI (MCF7 breast): > 100000 nM
GI50 (MDA-MB-231 breast): < 10 nM
GI50 (MDA-MB-435): 43.6 nM
TGI (MDA-MB-435): > 100000 nM
GI50 (MDA-MB-468 breast): < 10 nM
GI50 (MOLT-4 leukemia): < 10 nM
